Source: article PMC6843832, “Synthesis of Novel Analogs of Thieno[2,3-d] Pyrimidin-4(3H)-ones as Selective Inhibitors of Cancer Cell Growth” (Biomolecules, 2019)

Legend:
[1] = test system: A549 cells; assay: Hoechst 33258 staining (apoptosis); type: cell-based, human; details: 72 h
Method: For Hoechst staining, A549 cells were seeded in 6-well plates (8 × 10^4 cells/well) and allowed to adhere overnight. Compounds at a final concentration of 10, 5 and 1 µM were used to treat cells in the exponential growth phase for 72 h. Following this, the staining solution was added to the well plates and held at room temperature for 10 min. Afterwards, Hoechst 33258 was added to dye the cells for 10 min at room temperature in the dark. After washing two times with PBS, the treated cells were photographed under a semi-electrical fluorescence microscope (Olympus BX53, Olympus, Tokyo, Japan), to capture images of the stained nuclei from each well from randomly selected regions.

[2] = test system: PC-3 cells; assay: MTT assay, PC-3 cells; type: cell-based; details: human prostate cancer cells, 72 h, read-out: Cytotoxic activity (IC50) PC-3
Method: (§1) Primary human liver HL-7702 cells were purchased from SIBS (Shanghai Institutes for Biological Sciences, Shanghai, China) while MCF-7, A549, PC-9 and PC-3 cells were from ATCC (American Type Culture Collection, Rockville, MD, USA). HL-7702, PC-9 and A549 cells were incubated with Roswell Park Memorial Institute (RPMI) 1640 medium and MCF-7 were cultured in Dulbecco’s Modified Eagle’s Medium (DMEM) supplemented with 10% heat-inactivated fetal bovine serum (FBS) and 1% antibiotics (penicillin and streptomycin). PC-3, a human prostate adenocarcinoma cell, was maintained in Ham’s F-12 Medium supplemented with 10% FBS, 1% penicillin/streptomycin and 1% glutamine. All cells were cultured at 37 °C in an incubator containing 5% CO2. The cell viability was determined by using the MTT (methyl thiazolyl tetrazolium bromide) assay. Briefly, cells were seeded in 96-well plates (4 × 10^3 cells/well) overnight and exposed to the synthesized compounds with various concentrations. Camptothecin and dimethyl sulfoxide (DMSO) served as a positive control and a negative control respectively. After 72 h of incubation, 20 μL of MTT (5 mg/mL in phosphate buffer saline (PBS)) were added into each well. Dissolved yellowish MTT is converted to an insoluble purple formazan during incubation (4 h). In order to dissolve the formazan crystals, 100 μL of lysis solution (10% SDS (sodium dodecyl sulfate)-5% isobutyl alcohol-0.01M HCl) was added into per well. Finally, the optical density (OD) of solution in the plates was measured using a microplate reader at 570 nm after dissolving overnight. Cell viability was calculated by using the following formula: […].

[3] = test system: A549 cells; assay: MTT assay, A549 cells; type: cell-based; details: Homo sapiens, A549, 72 h, human non-small cell lung cancer cells, read-out: Cytotoxic activity (IC50) A549
Method: as §1

[4] = test system: Bcl-2; assay: Western blotting, Bcl-2; type: cell-based, human; details: A549 cells, 0-10 μM, 72 h, western blot
Method: (§2) Total protein samples were extracted from A549 cells. cells were treated with different concentrations of compounds for 72 h, then the cells were collected, homogenized in 100 µL of ice-cold lysis buffer containing 2% SDS (sodium dodecyl sulfate), 10% DTT (dithiothreitol), 10% glycerin, 0.1% BPB (bromophenol blue) and 50mM Tris buffer (pH 6.8). After cell lyses were boiled for 30 min at 100 °C, samples were resolved on 12% SDS-PAGE (polyacrylamide gel) and then transferred to nitrocellulose (NC) membranes. Then the membranes were blocked with 5% skim milk at room temperature for 1 h. After incubation, the membranes were probed by primary antibodies for β-actin, Bax (BCL2-associated X protein) and Bcl-2 (B-cell lymphoma-2) at 4 °C overnight. After the blots were washed in TBST (Tris-base solution-Tween 20), membranes were incubated with HRP (horseradish peroxidase) -conjugated IgG secondary antibodies for 1 h at 37 °C. Finally, a Chemi-Doc image analyzer was used to determine protein expression levels by analyzing the signals captured on the NC membranes.

[5] = test system: Bax; assay: Western blotting, Bax; type: cell-based, human; details: A549 cells, 0-10 μM, 72 h, western blot
Method: as §2

[6] = test system: PC-9 cells; assay: MTT assay, PC-9 cells; type: cell-based; details: human non-small cell lung cancer cells, 72 h, read-out: Cytotoxic activity (IC50) PC-9
Method: as §1

[7] = MTT assay, HL-7702 cells; type: cell-based, human; details: HL-7702 cells (normal liver cells); normal human liver cells, MTT, 72 h; read-out: Cytotoxic activity (IC50) HL-7702
Method: as §1

[8] = test system: HL-7702 cells; assay: MTT assay, HL-7702 cells; type: cell-based, human; details: HL-7702, MTT
Method: as §1

[9] = test system: caspase-3; assay: Caspase-3 activity assay; type: cell-based, human; details: A549 cells, 0, 1, 5 μM, 48 h
Method: Briefly, A549 cells were cultured at 2 × 10^5 cells/well in 6-well plates and incubated with different concentrations of compounds (0, 1, 5 µM) for 48 h. At the end of the treatment, cells were harvested and lysed by the addition of lysis buffer from the caspase-3 assay kit. Aliquots of cell lysate were added to 96-well plates and the supernatant of cell lysates were mixed with buffer containing the above substrate peptides for 2 h at 37 °C. The absorbance in each well was measured at 405 nm using a microplate reader.

[10] = test system: MCF-7 cells; assay: MTT assay, MCF-7 cells; type: cell-based; details: MCF7, human breast cancer cells, 72 h, read-out: Cytotoxic activity (IC50) MCF-7
Method: as §1

[11] = test system: A549 cells; assay: Colony formation assay; type: cell-based; details: Homo sapiens, read-out: inhibition rate of colony formation
Method: The colony formation assay was executed to assess the colony forming ability of cancer cells treated by compounds. After being trypsinized and counted, the cells were seeded again on a 6-well plate with 4000 cells/well. Subsequently, cells were incubated at 37 °C in 5% CO2 overnight with medium. Afterwards, the cells were being treated with drugs (1 μM, 10 μM) and camptothecin (0.1 μM) for 10 days. Then, fresh PBS (1 mL/well) was added to wash the cells twice, before fixing with the stationary solution (10% acetic acid- 10% methanol- 80% dd H2O, 1 mL/well) at room temperature for 30 min. After that, 1% crystal violet was used to stain the cells. The cell viability was evaluated by the number of purple colonies.

caspase-3 activity [9]: accumulation of caspase-3 in the cytosol
SMILES: O=c1c2c3c(sc2nc(-c2ccccc2)n1CCc1ccc(O)cc1)CCCCC3 [Compound 15]
nuclear morphology, Hoechst 33258 staining ([1]; 1 μM): brightly stained nuclei due to chromatin condensation
nuclear morphology, Hoechst 33258 staining ([1]; 5 and 10 μM): cell membrane rupture and contraction were observed
IC50 [2]: 47.5 ± 3.39 µM
IC50 [3]: 0.94 ± 0.01 µM
Bcl-2 protein expression level [4]: reduction of Bcl-2 level
Bcl-2/Bax ratio ([4]; compared to control): significant decrease in the proportion of Bcl-2/Bax
Bax protein expression level [5]: increase of Bax level
IC50 [6]: > 100 µM
IC50 at 72 h [7]: > 100 µM
toxicity to normal human liver cells [8]: no toxicity to normal human liver cells
IC50 [10]: 17.3 ± 0.2 µM
inhibition at 1 µM [11]: 56%
